Laboratory results: patent US5246959A, “Poly(aminoalkyl)aminocarbonyl aminoacyl aminodiol amino acid derivatives as anti-hypertensive agents” (G. D. Searle & Co., priority 1991, dated 1993)
Where a SMILES comes first, the peptide text is derived from it. [ ]: non-standard residue; d: D form. The star is where a group is joined. Sta = CC(C)C[C@H](N)[C@@H](O)CC(=O)O; Isovaleryl = CC(C)CC(=O)*

Columns and labels:
Human Renin = molecular target: T1, Human Renin (Homo sapiens, UniProt P00797); experiment: human renin inhibition test in vitro (angiotensin I by radioimmunoassay); type: biochemical; settings: pH 7.4, 37° C., two hours, human plasma
T1 construct: purchased National Institute for Biological Standards, London
T1 sequence (P00797 67-406): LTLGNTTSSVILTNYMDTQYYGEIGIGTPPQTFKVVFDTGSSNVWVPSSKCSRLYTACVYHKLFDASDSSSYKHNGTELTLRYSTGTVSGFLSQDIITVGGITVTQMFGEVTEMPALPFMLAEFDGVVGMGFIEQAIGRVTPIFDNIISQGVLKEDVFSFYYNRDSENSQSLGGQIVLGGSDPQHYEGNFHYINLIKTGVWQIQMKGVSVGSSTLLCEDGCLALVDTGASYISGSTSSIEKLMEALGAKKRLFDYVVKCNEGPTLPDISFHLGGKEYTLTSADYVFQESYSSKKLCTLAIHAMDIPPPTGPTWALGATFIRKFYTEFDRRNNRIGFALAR
Protocol: Compounds of Formula I were evaluated as inhibitors of human renin in an in vitro assay, as follows: This human renin inhibition test has been previously described in detail [Papaioannou et al., Clinical and Experimental Hypertension, A7(9), 1243-1257 (1985)]. Human renin was obtained from the National Institute for Biological Standards, London. An incubation mixture was prepared containing in a total volume of 0.25 mL 100 mM Tris-acetate buffer at pH 7.4, 25×10^-6 Goldblatt units of renin, 0.05 mL of plasma from human volunteers taking oral contraceptives, 6.0 mM sodium EDTA, 2.4 mM phenylmethyl sulfonyl fluoride, 1.5 mM 8-hydroxyquinoline, 0.4 mg/mL BSA, and 0.024 mg/mL neomycin sulfate. This mixture was incubated for two hours at 37° C. in the presence or absence of renin inhibitors. The produced angiotensin I was determined by radioimmunoassay (New England Nuclear kit). Test compounds to be assayed were solubilized in DMSO and diluted with 100 mM Trisacetate buffer at pH 7.4 containing 0.5% bovine serum albumin (BSA) to the appropriate concentration. The final concentration of organic solvent in the reaction mixture was less than 1%. Control incubations at 37° C. were used to correct for effects of organic solvent on renin activity.

hog renin = settings: after injection of hog renin into nephrectomized rats; cited from earlier work
pepsin = settings: cited from earlier work
cathepsin D = settings: cited from earlier work
renin = settings: cited from earlier work

| IC50 (Human Renin) [nM] | Compound | reduce blood pressure in vivo (hog renin) | inhibitor of pepsin (pepsin) | inhibitor of cathepsin D (cathepsin D) | inhibitor of renin (renin) |
| --- | --- | --- | --- | --- | --- |
| 2.4 | CC(C)C[C@H](NC(=O)[C@H](Cc1ccccc1)OC(=O)N(C)CCN(C)CCN(C)C)C(=O)N[C@@H](CC1CCCCC1)[C@@H](O)[C@@H](O)CC(C)C [Example 10] | – | – | – | – |
| 1 | CC(C)C[C@H](O)[C@H](O)[C@H](CC1CCCCC1)NC(=O)[C@H](Cc1cnc[nH]1)NC(=O)[C@H](Cc1ccccc1)OC(=O)N(C)CCN(C)CCN(C)C [Example 11, O-{N-[2-{N-[2-(N,N-dimethylamino)ethyl]-N-methylamino}-ethyl]-N-methylaminocarbonyl}-3-L-phenyllactyl-L-histidineamide of (2S,3R,4S)-2-amino-1-cyclohexyl-3,4-dihydroxy-6-methylheptane] | – | – | – | – |
| 110 | CC(C)C[C@H](O)[C@H](O)[C@H](CC1CCCCC1)NC(=O)[C@H](C)CNC(=O)[C@H](Cc1ccccc1)OC(=O)N(C)CCN(C)CCN(C)C [Example 12] | – | – | – | – |
| – | CC(C)CC(=O)N[C@H](C(=O)N[C@H](C(=O)N[C@@H](CC(C)C)[C@@H](O)CC(=O)N[C@@H](C)C(=O)N[C@@H](CC(C)C)[C@@H](O)CC(=O)O)C(C)C)C(C)C [pepstatin] (Isovaleryl-VV[Sta]A[Sta]-OH) | found to reduce blood pressure in vivo | inhibitor | inhibitor | inhibitor |
